# According to PubChem BioAssay AID1645866 (Buhrlage Lab, Dana-Farber Cancer Institute and Novartis …, 2021):
# Calls of active or inactive are those of the source.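 Rule for the calls: active = in confirmatory dose-response testing, peak deubiquitinase inhibition of 30% or more; inactive = the rest.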
# Biological target: Ubiquitin carboxyl-terminal hydrolase 28 (Homo sapiens) (UniProt Q96RU2)
# Test: Ubiquitin-specific peptidase 28 DUB inhibitors, biochemical concentration-dependence assay, validation of primary screening hits (AID 1645866)
# Conditions: purified USP28, ubiquitin-rhodamine fluorescence, 30 min
# Chain of Ubiquitin carboxyl-terminal hydrolase 28 (Homo sapiens) (Q96RU2 whole entry, looked up): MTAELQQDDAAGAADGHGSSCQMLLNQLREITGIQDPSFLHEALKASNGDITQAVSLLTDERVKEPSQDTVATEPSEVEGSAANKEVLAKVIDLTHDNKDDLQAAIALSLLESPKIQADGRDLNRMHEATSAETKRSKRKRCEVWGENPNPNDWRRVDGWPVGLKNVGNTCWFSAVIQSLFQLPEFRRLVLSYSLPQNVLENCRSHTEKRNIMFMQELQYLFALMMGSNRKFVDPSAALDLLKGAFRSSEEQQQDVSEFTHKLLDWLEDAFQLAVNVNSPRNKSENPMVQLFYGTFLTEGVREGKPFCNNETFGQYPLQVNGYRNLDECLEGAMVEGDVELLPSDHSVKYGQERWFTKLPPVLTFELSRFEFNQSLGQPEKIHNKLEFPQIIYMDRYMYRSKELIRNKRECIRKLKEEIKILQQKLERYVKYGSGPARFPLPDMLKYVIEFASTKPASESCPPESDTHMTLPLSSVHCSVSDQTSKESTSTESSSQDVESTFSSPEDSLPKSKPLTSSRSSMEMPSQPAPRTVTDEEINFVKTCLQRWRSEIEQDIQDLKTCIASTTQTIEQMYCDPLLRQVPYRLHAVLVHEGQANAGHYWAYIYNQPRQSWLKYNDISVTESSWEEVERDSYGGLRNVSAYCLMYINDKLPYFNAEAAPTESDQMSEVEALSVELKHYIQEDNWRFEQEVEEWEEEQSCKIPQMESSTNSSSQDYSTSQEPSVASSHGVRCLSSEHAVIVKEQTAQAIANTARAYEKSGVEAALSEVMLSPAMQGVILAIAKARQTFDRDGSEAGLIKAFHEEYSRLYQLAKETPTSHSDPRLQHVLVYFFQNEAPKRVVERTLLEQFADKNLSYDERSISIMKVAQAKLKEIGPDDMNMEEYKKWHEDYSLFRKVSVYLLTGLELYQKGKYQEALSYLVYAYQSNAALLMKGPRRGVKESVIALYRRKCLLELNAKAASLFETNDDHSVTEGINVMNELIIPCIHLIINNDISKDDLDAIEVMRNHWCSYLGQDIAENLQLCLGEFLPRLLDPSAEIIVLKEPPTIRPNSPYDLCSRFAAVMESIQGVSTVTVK
row,SMILES,IC50
1,NS(=O)(=O)c1cccc(NS(=O)(=O)c2ccc(/C=C/C(=O)OCC(=O)c3ccc(Br)cc3)cc2)c1,> 50 µM (inactive)
2,O=C(NCc1ccco1)c1ccc2c(c1)N(Cc1cccc(F)c1)C(=O)c1ccccc1S2,> 50 µM (inactive)
3,Cc1noc(C)c1COc1cccc(C(=O)Nc2cc(Cl)ccc2-n2cncn2)c1,> 50 µM (inactive)
4,COc1ccc(CCNC(=O)COc2ncnc3oc(C)c(C)c23)cc1OC,> 50 µM (inactive)
5,Cc1ccccc1N1C(=O)/C(=C\c2cccn2C)c2ccccc2C1=O,> 50 µM (inactive)
6,COc1ccc(-n2nnc(C(=O)Nc3ccccc3)c2N)cc1,> 50 µM (inactive)
7,CN(C(=O)CSc1nnc(-c2cc3ccccc3n2C)o1)c1ccccc1,> 50 µM (inactive)
8,O=S1(=O)CCN(Cc2c(F)cccc2F)c2c(F)nc(N3CCOCC3)c(F)c21,> 50 µM (inactive)
9,COc1cc(C2SCC(=O)Nc3c2c(-c2ccccc2)nn3-c2ccccc2)cc(OC)c1OC (stereo not drawn),3.37 µM
10,Cc1cccc(NC(=O)c2ccn(COc3ccc(F)cc3F)n2)c1C,> 50 µM (inactive)
11,Cc1nc(-c2ccc3c(c2)nnn3CCN2CCOCC2)no1,> 50 µM (inactive)
12,COc1ccc(-c2cc3c(=O)n(CC(=O)Nc4ccccc4F)ccn3n2)cc1OC,33 µM
13,CNC(=O)c1cc2nc(N(C)C)n(-c3ccccc3)c2s1,27.1 µM
14,COc1ccc(Cl)cc1N1C(=O)[C@H]2[C@@H](C1=O)[C@]1(C(=O)Nc3c(C)cc(C)cc31)N1CCC[C@@H]21,> 50 µM (inactive)
15,CCn1cc(NC(=O)CN2CCC3(CC=CCOC3)CC2)c(C)n1,> 50 µM (inactive)
16,O=c1c2ccccc2ncn1C1CCN(S(=O)(=O)c2ccccc2F)CC1,30.6 µM
17,Nc1ccccc1SC(CC(=O)c1ccc(Cl)cc1)c1ccsc1 (stereo not drawn),> 50 µM (inactive)
18,CC1=C2C(=NCCN1)C(=O)N(c1ccccc1)C2c1cccnc1 (stereo not drawn),> 50 µM (inactive)
19,CC(=O)c1ccc(NC(=O)C[n+]2cc(-c3ccc(Cl)cc3)n3c2CCC3)cc1,31.9 µM
20,O=C(Cc1ccccc1F)N1CCC2(CC1)CC1(CO2)Nc2ccccc2-n2cccc21 (stereo not drawn),> 50 µM (inactive)
21,CCc1noc(Cn2cnc3c4ccccc4n(CC(=O)NC4CCCCC4)c3c2=O)n1,40 µM
22,Cc1ccc2cc3c(nc2n1)CCN(Cc1ccc(F)cc1)C3,> 50 µM (inactive)
23,O=C(Cc1ccccc1F)Nc1nc(-c2ccco2)c(-c2ccco2)s1,> 50 µM (inactive)
24,O=C(Cn1c(CSc2ccccc2)nc2ccccc21)Nc1ccccc1F,26.4 µM
25,O=C1CN(C(=O)COC(=O)CCCN2C(=O)c3cccc4cccc(c34)C2=O)c2ccccc2N1,48.5 µM
26,Cc1cc(-c2ccnc3c(C#N)cnn23)c(C)s1,28.3 µM
27,Cc1ncc(CO)c2c1Oc1nc(-c3cccc(Cl)c3)nc(SCC(=O)N3CCCCC3)c1C2,> 50 µM (inactive)
28,O=C(c1ccc(COc2cccc3ccccc23)o1)N1CCC(Cc2ccccc2)CC1,> 50 µM (inactive)
29,COc1ccc(-c2nc(C)c(C(=O)NCc3ccc(S(N)(=O)=O)cc3)s2)cc1,> 50 µM (inactive)
30,c1cncc(-c2nc(Nc3ccc4c(c3)OCCO4)c3ccccc3n2)c1,34.9 µM

# The remaining lines, values ahead:
row,IC50,SMILES
1,19.6 µM,CCN(C(=O)c1cc2c(s1)-c1ccccc1OC2)c1ccccc1F
2,16.7 µM,Cc1ccc(Nc2nc(O)c(CC(=O)Nc3ccccc3C)s2)cc1C
3,20.5 µM,O=C(Nc1ccc2c(c1)OCCO2)Nc1nnc(CC(=O)N2CCCCC2)s1
4,23.8 µM,O=[N+]([O-])c1ccccc1C(c1c[nH]c2ccccc12)c1c[nH]c2ccccc12
5,1.09 µM,O=c1sc2ccccc2c(=O)n1Cc1cccc(C(F)(F)F)c1
6,1.91 µM,O=C1CC(O)C(C2=CC(=O)c3c(O)cccc3C2=O)O1 (stereo not drawn)
7,3.47 µM,COc1ccc(CCNC(=O)c2cc(C3CC3)nc3c2cnn3C(C)C)cc1
8,1.49 µM,CC(=O)C1=C(O)[C@]2(O)C(=O)c3c(c(C)c4ccc(C)c(O)c4c3O)C[C@H]2[C@@H](N)C1=O
9,1.56 µM,COc1cc(C)c2c(=O)c3c(oc2c1)C(=O)c1c(O)c(OC)cc(O)c1C3=O
10,5.88 µM,CCN(CC)c1cc(C)c2cc(NC(=O)c3ccncc3)ccc2n1
11,20.1 µM,COCCCNC(=O)c1ccc(Cn2c(=O)c3ccccc3n(CC(=O)Nc3ccc(OC)cc3)c2=O)cc1
12,6.28 µM,COc1cccc(NC(=O)Nc2ccc(CCc3nc4ccccc4[nH]3)cc2)c1
13,1.53 µM,O=C(Nc1ccc(-c2cn3ccsc3n2)cc1)c1ccc(Cl)c([N+](=O)[O-])c1
14,5.5 µM,CC(C)NS(=O)(=O)c1ccc(OCC(=O)N2CCC(Cc3ccccc3)CC2)cc1
15,8.44 µM,COc1ccc(CCn2cnc3c4ccccc4n(C)c3c2=O)cc1OC
16,2.2 µM,CC(=O)c1cccc(NC(=O)c2ccc(CN(c3ccc(C)c(C)c3)S(C)(=O)=O)cc2)c1
17,9.44 µM,O=C(Nc1ccc(F)cc1)Nc1ccccc1OCc1cc(=O)n2ccccc2n1
18,4.53 µM,CCC(=O)N1c2ccccc2NC2=C(C(=O)CC(c3ccccc3OCc3ccccc3)C2)C1c1ccccc1 (stereo not drawn)
19,2.94 µM,C/C=C1/C2=CCCN3C(=O)O[C@H]([C@H]1O)[C@H]23
20,22.2 µM,CCOC(=O)c1sc2c(c1C)c(=O)n(Cc1ccccc1)c(=O)n2CC(N)=O
21,2.67 µM,Cc1cc(C)c(NC(=O)Cn2c(=O)n(CCC(=O)NCc3ccc4c(c3)OCO4)c(=O)c3sccc32)c(C)c1
22,2.07 µM,COc1ccc(CCNC(=O)c2cc3ccccc3s2)cc1OC

row,IC50,SMILES
1,7.65 µM,CCn1cc(-c2nc(-c3ccccc3)no2)c(=O)c2cc(F)ccc21
2,15.1 µM,CCc1cccc2c(C(=O)COc3ccc(C#N)cc3)c[nH]c12
3,18.9 µM,COc1ccc(N(CC(=O)Nc2cccc(F)c2)S(=O)(=O)c2ccc(OC)c(OC)c2)cc1
4,22.5 µM,COc1ccc(NC(=O)c2ccc(Nc3nnc(C)c4ccccc34)cc2)cc1
5,3.28 µM,Nc1c(-c2ccc(Cl)cc2)cnc2cc(-c3ccc(Cl)c(Cl)c3)nn12
6,18.7 µM,COc1cccc(NC(=O)c2ccc(F)cc2Cl)c1
7,20.3 µM,Cc1noc(-c2ccc(N3CCCC(C(=O)NCc4ccc(F)cc4)C3)nc2)n1 (stereo not drawn)
8,19.5 µM,N#Cc1c(Cl)cccc1Oc1ccc(S(=O)(=O)N2CCC(O)CC2)cc1
9,1.74 µM,CCC(C)Oc1cccc(C(=O)Nc2ccc(CN3CCOCC3)cc2)c1 (stereo not drawn)
10,6.49 µM,Cc1ccc(Cn2nnc(C(=O)NCc3ccco3)c2-n2cccc2)cc1
11,2.19 µM,COc1cc(NC(=O)c2ccc3c(c2)OCO3)ccc1-c1cc2ccccc2oc1=O
12,18.9 µM,COc1ccc(NC(=O)CN2C(=O)c3ccccc3Sc3ccc(C(=O)N4CCCC4)cc32)c(OC)c1
13,1.31 µM,Cc1cccc(NC(=O)Cn2cnc(-c3noc(-c4ccccc4)n3)c2)c1C
14,5.4 µM,CCOC(=O)c1ccc(NC(=O)COc2cccc3c2CCN(CC)C3=O)cc1
15,21.3 µM,CC1(C(=O)NC2CCCC2)Cn2c(cc3ccccc32)C(=O)N1c1ccc(F)cc1 (stereo not drawn)
16,23 µM,Cc1nn(-c2cc(N3CCOCC3)ncn2)c(C)c1CCC(=O)Nc1ccc(C(C)C)cc1
17,21.7 µM,O=C(NCc1ccc(Br)cc1)c1ccc(-c2cccnc2)nc1
18,13.6 µM,Clc1ccc(C[n+]2cc(-c3ccc(Cl)cc3)n3c2CCC3)cc1
19,4.77 µM,Cc1ccc2cccc(OCc3nnc(SCC(=O)c4ccc(Cl)cc4)n3C)c2n1
20,21.8 µM,CC(C)(C)C(=O)Nc1ccc(SCc2nnc(-c3ccccc3)o2)cc1
21,12.1 µM,COc1ccc(/C=C/C(=O)Nc2c3c(nc4c2CCC4)CCCC3)cc1
